According to patent US8987195B2 (priority 2012, dated 2015):
Read-outs that look alike come from different tables or passages of the source.

Experiments:
[1] = target: HCV NS3/4A protease genotype 1b (Hepatitis C virus genotype 1b, UniProt P26663); experiment: HCV NS3/4A protease time-resolved fluorescence (TRF) assay, Ki against genotype 1b; assay type: biochemical; conditions: IC50 [gt-1b], NS3/4A protease TRF assay, genotype 1b enzyme 0.2 nM
Outline: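 Time-resolved fluorescence readout of NS3/4A cleavage of 25 nM europium-labelled peptide over 2.5 h at room temperature, enzyme levels set for signal/background 10–30 (0.2, 0.4, 0.025 nM for 1b, A156T, 3a). Ki by IC50=Ki(1+[S]/KM).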

[2] = test system: HCV genotype 1b replicon; experiment: HCV replicon assay, genotype 1b replicon EC50; assay type: cell-based, Hepatitis C virus; conditions: HCV replicon, genotype 1b, read-out: EC50 [gt-1b]
Outline: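 Assay format: compound titration on stable replicon cells, no G418 during treatment, 24 to 48 hours. Lysates were assayed for replicon RNA (hybridization/protection or TaqMan) or luciferase; EC50 fitted to four parameters against DMSO.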

Row | Structure (SMILES) | IC50 [1] [pM] | EC50 ([2]; Hepatitis C virus) [pM] | IC50 ([1]; K+ salt) [pM] | EC50 ([2]; Hepatitis C virus, K+ salt) [pM] | EC50 ([2]; K+ salt) [pM]
1 | COc1ccc2nc(C(C)C)c3c(c2c1)[C@H](F)C[C@]1(C[C@H]2C(=O)N[C@]4(C(=O)NS(=O)(=O)C5(C)CC5)C[C@H]4/C=C\CCCCC[C@H](NC(=O)OCC(C)(C)C)C(=O)N2C1)O3 [Example 388, 2,2-dimethylpropyl [(1′R,2S,6S,12Z,13aS,14aR,16aS)-1′-fluoro-9′-methoxy-14a-{[(1-methylcyclopropyl)sulfonyl]carbamoyl}-5,16-dioxo-5′-(propan-2-yl)-1,1′,2′,5,6,7,8,9,10,11,13a,14,14a,15,16,16a-hexadecahydrospiro[cyclopropa[e]pyrrolo[1,2-a][1,4]diazacyclopentadecine-2,3′-pyrano[2,3-c]quinolin]-6-yl]carbamate] | 28 | 1310 |  |  | 
2 | Cc1ccc2nc(C(F)(F)F)c3c(c2c1)CC[C@]1(C[C@H]2C(=O)N[C@]4(C(=O)NS(=O)(=O)C5(C)CC5)C[C@H]4/C=C\CCCCC[C@H](NC(=O)OC(C)(C)C)C(=O)N2C1)O3 [Example 389, tert-butyl [(2R,6S,12Z,13aS,14aR,16aS)-9′-methyl-14a-{[(1-methylcyclopropyl)sulfonyl]carbamoyl}-5,16-dioxo-5′-(trifluoromethyl)-1,1′,2′,5,6,7,8,9,10,11,13a,14,14a,15,16,16a-hexadecahydrospiro[cyclopropa[e]pyrrolo[1,2-a][1,4]diazacyclopentadecine-2,3′-pyrano[2,3-c]quinolin]-6-yl]carbamate] | 11 | 2610 |  |  | 
3 | Cc1ccc2nc(C(F)(F)F)c3c(c2c1)CC[C@]1(C[C@H]2C(=O)N[C@]4(C(=O)NS(=O)(=O)C5(C)CC5)C[C@H]4/C=C\CCCCC[C@H](NC(=O)OCC(C)C)C(=O)N2C1)O3 [Example 390, 2-methylpropyl [(2R,6S,12Z,13aS,14aR,16aS)-9′-methyl-14a-{[(1-methylcyclopropyl)sulfonyl]carbamoyl}-5,16-dioxo-5′-(trifluoromethyl)-1,1′,2′,5,6,7,8,9,10,11,13a,14,14a,15,16,16a-hexadecahydrospiro[cyclopropa[e]pyrrolo[1,2-a][1,4]diazacyclopentadecine-2,3′-pyrano[2,3-c]quinolin]-6-yl]carbamate] | 15 | 15500 |  |  | 
4 | [2H]C([2H])(F)Oc1ccc2nc(C)c3c(c2c1)[C@H](F)C[C@]1(C[C@H]2C(=O)N[C@]4(C(=O)NS(=O)(=O)C5(C)CC5)C[C@H]4/C=C\CCCCC[C@H](NC(=O)OCC(C)C)C(=O)N2C1)O3 [Example 402, 2-methylpropyl [(1′R,2S,6S,12Z,13aS,14aR,16aS)-1′-fluoro-9′-{[fluoro(^2H2)methyl]oxy}-5′-methyl-14a-{[(1-methylcyclopropyl)sulfonyl]carbamoyl}-5,16-dioxo-1,1′,2′,5,6,7,8,9,10,11,13a,14,14a,15,16,16a-hexadecahydrospiro[cyclopropa[e]pyrrolo[1,2-a][1,4]diazacyclopentadecine-2,3′-pyrano[2,3-c]quinolin]-6-yl]carbamate] |  |  | 11 | 2270 | 
5 | [2H]C([2H])(F)Oc1ccc2nc(C)c3c(c2c1)[C@H](F)C[C@]1(C[C@H]2C(=O)N[C@]4(C(=O)NS(=O)(=O)C5(C)CC5)C[C@H]4/C=C\CCCCC[C@H](NC(=O)OCC(C)(C)C)C(=O)N2C1)O3 [Example 403, 2,2-dimethylpropyl [(1′R,2S,6S,12Z,13aS,14aR,16aS)-1′-fluoro-9′-{[fluoro(^2H2)methyl]oxy}-5′-methyl-14a-{[(1-methylcyclopropyl)sulfonyl]carbamoyl}-5,16-dioxo-1,1′,2′,5,6,7,8,9,10,11,13a,14,14a,15,16,16a-hexadecahydrospiro[cyclopropa[e]pyrrolo[1,2-a][1,4]diazacyclopentadecine-2,3′-pyrano[2,3-c]quinolin]-6-yl]carbamate] |  |  | 13 | 1920 | 
6 | COc1ccc2nc(C)c3c(c2c1)[C@H](F)C[C@]1(C[C@H]2C(=O)N[C@]4(C(=O)NS(=O)(=O)C5(C)CC5)C[C@H]4/C=C\CCCCC[C@H](NC(=O)OC(C)C(C)(C)C)C(=O)N2C1)O3 (stereo partly drawn) [Example 404, 3,3-dimethylbutan-2-yl [(l′R,2S,6S,12Z,13aS,14aR,16aS)-1′-fluoro-9′-methoxy-5′-methyl-14a-{[(1-methylcyclopropyl)sulfonyl]carbamoyl}-5,16-dioxo-1,1′,2′,5,6,7,8,9,10,11,13a,14,14a,15,16,16a-hexadecahydrospiro[cyclopropa[e]pyrrolo[1,2-a][1,4]diazacyclopentadecine-2,3′-pyrano[2,3-c]quinolin]-6-yl]carbamate] | 18 | 1230 |  |  | 
7 | Cc1nc2ccc(F)cc2c2c1O[C@]1(CC2)C[C@H]2C(=O)N[C@]3(C(=O)NS(=O)(=O)C4(C)CC4)C[C@H]3/C=C\CCCCC[C@H](NC(=O)OC(C)(C)C(F)(F)F)C(=O)N2C1 [Example 405, 1,1,1-trifluoro-2-methylpropan-2-yl [(2R,6S,12Z,13aS,14aR,16aS)-9′-fluoro-5′-methyl-14a-{[(1-methylcyclopropyl)sulfonyl]carbamoyl}-5,16-dioxo-1,1′,2′,5,6,7,8,9,10,11,13a,14,14a,15,16,16a-hexadecahydrospiro[cyclopropa[e]pyrrolo[1,2-a][1,4]diazacyclopentadecine-2,3′-pyrano[2,3-c]quinolin]-6-yl]carbamate] | 21 | 813 |  |  | 
8 | Cc1nc2ccc(F)cc2c2c1O[C@]1(CC2)C[C@H]2C(=O)N[C@]3(C(=O)NS(=O)(=O)C4(C)CC4)C[C@H]3/C=C\CCCCC[C@H](NC(=O)OCC(C)(C)C)C(=O)N2C1 [Example 406, 2,2-dimethylpropyl [(2R,6S,12Z,13aS,14aR,16aS)-9′-fluoro-5′-methyl-14a-{[(1-methylcyclopropyl)sulfonyl]carbamoyl}-5,16-dioxo-1,1′,2′,5,6,7,8,9,10,11,13a,14,14a,15,16,16a-hexadecahydrospiro[cyclopropa[e]pyrrolo[1,2-a][1,4]diazacyclopentadecine-2,3′-pyrano[2,3-c]quinolin]-6-yl]carbamate] | 13 | 1000 |  |  | 
9 | COc1ccc2nc(C)c3c(c2c1)CC[C@]1(C[C@H]2C(=O)N[C@]4(C(=O)NS(=O)(=O)C5(C)CC5)C[C@H]4/C=C\CCCCC[C@H](NC(=O)OC(C(C)C)C(F)(F)F)C(=O)N2C1)O3 (stereo partly drawn) [Example 407, 1,1,1-trifluoro-3-methylbutan-2-yl [(2R,6S,12Z,13aS,14aR,16aS)-9′-methoxy-5′-methyl-14a-{[(1-methylcyclopropyl)sulfonyl]carbamoyl}-5,16-dioxo-1,1′,2′,5,6,7,8,9,10,11,13a,14,14a,15,16,16a-hexadecahydrospiro[cyclopropa[e]pyrrolo[1,2-a][1,4]diazacyclopentadecine-2,3′-pyrano[2,3-c]quinolin]-6-yl]carbamate] |  |  | 19 | 1500 | 
10 | COc1ccc2nc(C)c3c(c2c1)CC[C@]1(C[C@H]2C(=O)N[C@]4(C(=O)NS(=O)(=O)C5(C)CC5)C[C@H]4/C=C\CCCCC[C@H](NC(=O)OC(C(C)C)C(F)(F)F)C(=O)N2C1)O3 (stereo partly drawn) [Example 408, 1,1,1-trifluoro-3-methylbutan-2-yl [(2R,6S,12Z,13aS,14aR,16aS)-9′-methoxy-5′-methyl-14a-{[(1-methylcyclopropyl)sulfonyl]carbamoyl}-5,16-dioxo-1,1′,2′,5,6,7,8,9,10,11,13a,14,14a,15,16,16a-hexadecahydrospiro[cyclopropa[e]pyrrolo[1,2-a][1,4]diazacyclopentadecine-2,3′-pyrano[2,3-c]quinolin]-6-yl]carbamate] |  |  | 23 |  | 1230
11 | COCCOc1ccc2nc(C)c3c(c2c1)CC[C@]1(C[C@H]2C(=O)N[C@]4(C(=O)NS(=O)(=O)C5(C)CC5)C[C@H]4/C=C\CCCCC[C@H](NC(=O)OC(C)(C)C)C(=O)N2C1)O3 [Example 409, tert-butyl [(2R,6S,12Z,13aS,14aR,16aS)-9′-(2-methoxyethoxy)-5′-methyl-14a-{[(1-methylcyclopropyl)sulfonyl]carbamoyl}-5,16-dioxo-1,1′,2′,5,6,7,8,9,10,11,13a,14,14a,15,16,16a-hexadecahydrospiro[cyclopropa[e]pyrrolo[1,2-a][1,4]diazacyclopentadecine-2,3′-pyrano[2,3-c]quinolin]-6-yl]carbamate] | 20 | 4730 |  |  | 
12 | COCCOc1ccc2nc(C)c3c(c2c1)CC[C@]1(C[C@H]2C(=O)N[C@]4(C(=O)NS(=O)(=O)C5(C)CC5)C[C@H]4/C=C\CCCCC[C@H](NC(=O)OCC(C)(C)C)C(=O)N2C1)O3 [Example 410, 2,2-dimethylpropyl [(2R,6S,12Z,13aS,14aR,16aS)-9′-(2-methoxyethoxy)-5′-methyl-14a-{[(1-methylcyclopropyl)sulfonyl]carbamoyl}-5,16-dioxo-1,1′,2′,5,6,7,8,9,10,11,13a,14,14a,15,16,16a-hexadecahydrospiro[cyclopropa[e]pyrrolo[1,2-a][1,4]diazacyclopentadecine-2,3′-pyrano[2,3-c]quinolin]-6-yl]carbamate] | 11 | 3100 |  |  | 
